Assay results from ChEMBL document CHEMBL5303573, “Mapping human microbiome drug metabolism by gut bacteria and their genes” (Nature, 2019).

Assay: The drug is tested on Edwardsiella tarda strain: ATCC23685 for biotransformation. The drug concentrations were measured before and after a 12-h incubation by liquid-chromatography-coupled mass spectrometry (LC–MS)
Settings: 2 µM

Structure (SMILES)	Bacterial Biotransformation
c1ccc2[nH]c(-c3cscn3)nc2c1 [THIABENDAZOLE]	Compound NOT metabolized
CC(C)(C)N.CCC[C@H](N[C@@H](C)C(=O)N1[C@H](C(=O)O)C[C@@H]2CCCC[C@@H]21)C(=O)OCC [PERINDOPRIL ERBUMINE]	Compound NOT metabolized
COc1cc2nc(N(C)CCCNC(=O)C3CCCO3)nc(N)c2cc1OC (configuration not stated) [ALFUZOSIN]	Compound NOT metabolized

Assay: The drug is tested on Bacteroides coprophilus strain: DSM18228 for biotransformation. The drug concentrations were measured before and after a 12-h incubation by liquid-chromatography-coupled mass spectrometry (LC–MS)
Settings: 2 µM

Structure (SMILES)	Bacterial Biotransformation
CC(C)(C)N.CCC[C@H](N[C@@H](C)C(=O)N1[C@H](C(=O)O)C[C@@H]2CCCC[C@@H]21)C(=O)OCC [PERINDOPRIL ERBUMINE]	Compound NOT metabolized
COc1cc2nc(N(C)CCCNC(=O)C3CCCO3)nc(N)c2cc1OC (configuration not stated) [ALFUZOSIN]	Compound NOT metabolized

Assay: The drug is tested on Collinsella intestinalis strain: DSM13280 for biotransformation. The drug concentrations were measured before and after a 12-h incubation by liquid-chromatography-coupled mass spectrometry (LC–MS)
Settings: 2 µM

Structure (SMILES)	Bacterial Biotransformation
c1ccc2[nH]c(-c3cscn3)nc2c1 [THIABENDAZOLE]	Compound NOT metabolized
CC(C)(C)N.CCC[C@H](N[C@@H](C)C(=O)N1[C@H](C(=O)O)C[C@@H]2CCCC[C@@H]21)C(=O)OCC [PERINDOPRIL ERBUMINE]	Compound NOT metabolized
COc1cc2nc(N(C)CCCNC(=O)C3CCCO3)nc(N)c2cc1OC (configuration not stated) [ALFUZOSIN]	Compound NOT metabolized

Settings: enterocloster bolteae, 12 h, 2 µM
Description: The drug is tested on Clostridium bolteae strain: ATCCBAA-613 for biotransformation. The drug concentrations were measured before and after a 12-h incubation by liquid-chromatography-coupled mass spectrometry (LC–MS)

Structure (SMILES)	Bacterial Biotransformation
c1ccc2[nH]c(-c3cscn3)nc2c1 [THIABENDAZOLE]	Compound NOT metabolized
CC(C)(C)N.CCC[C@H](N[C@@H](C)C(=O)N1[C@H](C(=O)O)C[C@@H]2CCCC[C@@H]21)C(=O)OCC [PERINDOPRIL ERBUMINE]	Compound NOT metabolized
COc1cc2nc(N(C)CCCNC(=O)C3CCCO3)nc(N)c2cc1OC (configuration not stated) [ALFUZOSIN]	Compound NOT metabolized

Assay: The drug is tested on Bifidobacterium longum subsp. Infantis strain: CCUG52486 for biotransformation. The drug concentrations were measured before and after a 12-h incubation by liquid-chromatography-coupled mass spectrometry (LC–MS)
Settings: 2 µM

Structure (SMILES)	Bacterial Biotransformation
c1ccc2[nH]c(-c3cscn3)nc2c1 [THIABENDAZOLE]	Compound NOT metabolized
CC(C)(C)N.CCC[C@H](N[C@@H](C)C(=O)N1[C@H](C(=O)O)C[C@@H]2CCCC[C@@H]21)C(=O)OCC [PERINDOPRIL ERBUMINE]	Compound NOT metabolized
COc1cc2nc(N(C)CCCNC(=O)C3CCCO3)nc(N)c2cc1OC (configuration not stated) [ALFUZOSIN]	Compound NOT metabolized

Settings: bacteroides eggerthii, 12 h, 2 µM
Description: The drug is tested on Bacteroides eggerthii strain: DSM20697 for biotransformation. The drug concentrations were measured before and after a 12-h incubation by liquid-chromatography-coupled mass spectrometry (LC–MS)

Structure (SMILES)	Bacterial Biotransformation
c1ccc2[nH]c(-c3cscn3)nc2c1 [THIABENDAZOLE]	Compound NOT metabolized
CC(C)(C)N.CCC[C@H](N[C@@H](C)C(=O)N1[C@H](C(=O)O)C[C@@H]2CCCC[C@@H]21)C(=O)OCC [PERINDOPRIL ERBUMINE]	Compound NOT metabolized
COc1cc2nc(N(C)CCCNC(=O)C3CCCO3)nc(N)c2cc1OC (configuration not stated) [ALFUZOSIN]	Compound NOT metabolized

Assay: The drug is tested on Anaerococcus hydrogenalis strain: DSM7454 for biotransformation. The drug concentrations were measured before and after a 12-h incubation by liquid-chromatography-coupled mass spectrometry (LC–MS)
Settings: 2 µM

Structure (SMILES)	Bacterial Biotransformation
c1ccc2[nH]c(-c3cscn3)nc2c1 [THIABENDAZOLE]	Compound NOT metabolized
CC(C)(C)N.CCC[C@H](N[C@@H](C)C(=O)N1[C@H](C(=O)O)C[C@@H]2CCCC[C@@H]21)C(=O)OCC [PERINDOPRIL ERBUMINE]	Compound NOT metabolized
COc1cc2nc(N(C)CCCNC(=O)C3CCCO3)nc(N)c2cc1OC (configuration not stated) [ALFUZOSIN]	Compound NOT metabolized

Assay: The drug is tested on Bacteroides pectinophilus strain: ATCC43243 for biotransformation. The drug concentrations were measured before and after a 12-h incubation by liquid-chromatography-coupled mass spectrometry (LC–MS)
Settings: 2 µM

Structure (SMILES)	Bacterial Biotransformation
c1ccc2[nH]c(-c3cscn3)nc2c1 [THIABENDAZOLE]	Compound NOT metabolized
CC(C)(C)N.CCC[C@H](N[C@@H](C)C(=O)N1[C@H](C(=O)O)C[C@@H]2CCCC[C@@H]21)C(=O)OCC [PERINDOPRIL ERBUMINE]	Compound NOT metabolized
COc1cc2nc(N(C)CCCNC(=O)C3CCCO3)nc(N)c2cc1OC (configuration not stated) [ALFUZOSIN]	Compound NOT metabolized

Assay: The drug is tested on Parabacteroides merdae strain: ATCC43184 for biotransformation. The drug concentrations were measured before and after a 12-h incubation by liquid-chromatography-coupled mass spectrometry (LC–MS)
Settings: 2 µM

Structure (SMILES)	Bacterial Biotransformation
COc1cc2nc(N(C)CCCNC(=O)C3CCCO3)nc(N)c2cc1OC (configuration not stated) [ALFUZOSIN]	Compound NOT metabolized

Assay: The drug is tested on Ruminococcus gnavus strain: ATCC29149 for biotransformation. The drug concentrations were measured before and after a 12-h incubation by liquid-chromatography-coupled mass spectrometry (LC–MS)
Settings: mediterraneibacter gnavus, 2 µM

Structure (SMILES)	Bacterial Biotransformation
c1ccc2[nH]c(-c3cscn3)nc2c1 [THIABENDAZOLE]	Compound NOT metabolized
CC(C)(C)N.CCC[C@H](N[C@@H](C)C(=O)N1[C@H](C(=O)O)C[C@@H]2CCCC[C@@H]21)C(=O)OCC [PERINDOPRIL ERBUMINE]	Compound NOT metabolized
COc1cc2nc(N(C)CCCNC(=O)C3CCCO3)nc(N)c2cc1OC (configuration not stated) [ALFUZOSIN]	Compound NOT metabolized

Assay: The drug is tested on Providencia stuartii strain: ATCC25827 for biotransformation. The drug concentrations were measured before and after a 12-h incubation by liquid-chromatography-coupled mass spectrometry (LC–MS)
Settings: 2 µM

Structure (SMILES)	Bacterial Biotransformation
c1ccc2[nH]c(-c3cscn3)nc2c1 [THIABENDAZOLE]	Compound NOT metabolized
CC(C)(C)N.CCC[C@H](N[C@@H](C)C(=O)N1[C@H](C(=O)O)C[C@@H]2CCCC[C@@H]21)C(=O)OCC [PERINDOPRIL ERBUMINE]	Compound NOT metabolized
COc1cc2nc(N(C)CCCNC(=O)C3CCCO3)nc(N)c2cc1OC (configuration not stated) [ALFUZOSIN]	Compound NOT metabolized

Settings: bacteroides stercoris, 12 h, 2 µM
Description: The drug is tested on Bacteroides stercoris strain: ATCC43183 for biotransformation. The drug concentrations were measured before and after a 12-h incubation by liquid-chromatography-coupled mass spectrometry (LC–MS)

Structure (SMILES)	Bacterial Biotransformation
c1ccc2[nH]c(-c3cscn3)nc2c1 [THIABENDAZOLE]	Compound NOT metabolized
COc1cc2nc(N(C)CCCNC(=O)C3CCCO3)nc(N)c2cc1OC (configuration not stated) [ALFUZOSIN]	Compound NOT metabolized

Settings: bacteroides intestinalis, 12 h, 2 µM
Description: The drug is tested on Bacteroides intestinalis strain: DSM17393 for biotransformation. The drug concentrations were measured before and after a 12-h incubation by liquid-chromatography-coupled mass spectrometry (LC–MS)

Structure (SMILES)	Bacterial Biotransformation
c1ccc2[nH]c(-c3cscn3)nc2c1 [THIABENDAZOLE]	Compound NOT metabolized
CC(C)(C)N.CCC[C@H](N[C@@H](C)C(=O)N1[C@H](C(=O)O)C[C@@H]2CCCC[C@@H]21)C(=O)OCC [PERINDOPRIL ERBUMINE]	Compound NOT metabolized
COc1cc2nc(N(C)CCCNC(=O)C3CCCO3)nc(N)c2cc1OC (configuration not stated) [ALFUZOSIN]	Compound NOT metabolized

Assay: The drug is tested on Bacteroides dorei strain: DSM17855 for biotransformation. The drug concentrations were measured before and after a 12-h incubation by liquid-chromatography-coupled mass spectrometry (LC–MS)
Settings: phocaeicola dorei, 2 µM

Structure (SMILES)	Bacterial Biotransformation
c1ccc2[nH]c(-c3cscn3)nc2c1 [THIABENDAZOLE]	Compound NOT metabolized
CC(C)(C)N.CCC[C@H](N[C@@H](C)C(=O)N1[C@H](C(=O)O)C[C@@H]2CCCC[C@@H]21)C(=O)OCC [PERINDOPRIL ERBUMINE]	Compound NOT metabolized
COc1cc2nc(N(C)CCCNC(=O)C3CCCO3)nc(N)c2cc1OC (configuration not stated) [ALFUZOSIN]	Compound metabolized

Settings: limosilactobacillus reuteri cf48-3a, 12 h, 2 µM
Description: The drug is tested on Lactobacillus reuteri CF48-3A strain: BEI HM-102 for biotransformation. The drug concentrations were measured before and after a 12-h incubation by liquid-chromatography-coupled mass spectrometry (LC–MS)

Structure (SMILES)	Bacterial Biotransformation
c1ccc2[nH]c(-c3cscn3)nc2c1 [THIABENDAZOLE]	Compound NOT metabolized
CC(C)(C)N.CCC[C@H](N[C@@H](C)C(=O)N1[C@H](C(=O)O)C[C@@H]2CCCC[C@@H]21)C(=O)OCC [PERINDOPRIL ERBUMINE]	Compound NOT metabolized
COc1cc2nc(N(C)CCCNC(=O)C3CCCO3)nc(N)c2cc1OC (configuration not stated) [ALFUZOSIN]	Compound NOT metabolized

Assay: The drug is tested on Bacteroides sp. WH2 strain: WH2 for biotransformation. The drug concentrations were measured before and after a 12-h incubation by liquid-chromatography-coupled mass spectrometry (LC–MS)
Settings: bacteroides sp. wh2, 12 h, 2 µM

Structure (SMILES)	Bacterial Biotransformation
c1ccc2[nH]c(-c3cscn3)nc2c1 [THIABENDAZOLE]	Compound NOT metabolized
CC(C)(C)N.CCC[C@H](N[C@@H](C)C(=O)N1[C@H](C(=O)O)C[C@@H]2CCCC[C@@H]21)C(=O)OCC [PERINDOPRIL ERBUMINE]	Compound NOT metabolized
COc1cc2nc(N(C)CCCNC(=O)C3CCCO3)nc(N)c2cc1OC (configuration not stated) [ALFUZOSIN]	Compound NOT metabolized

Assay: The drug is tested on Collinsella aerofaciens strain: ATCC25986 for biotransformation. The drug concentrations were measured before and after a 12-h incubation by liquid-chromatography-coupled mass spectrometry (LC–MS)
Settings: 2 µM

Structure (SMILES)	Bacterial Biotransformation
c1ccc2[nH]c(-c3cscn3)nc2c1 [THIABENDAZOLE]	Compound NOT metabolized
CC(C)(C)N.CCC[C@H](N[C@@H](C)C(=O)N1[C@H](C(=O)O)C[C@@H]2CCCC[C@@H]21)C(=O)OCC [PERINDOPRIL ERBUMINE]	Compound NOT metabolized
COc1cc2nc(N(C)CCCNC(=O)C3CCCO3)nc(N)c2cc1OC (configuration not stated) [ALFUZOSIN]	Compound NOT metabolized
